Data published in patent US20100267561A1, “HERBICIDAL PYRIDAZINONE DERIVATIVES” (priority 2007, published 2010).

Assays:
Format in all cases: in vivo
[1] = tested on: giant foxtail (Setaria faberi); assay: Test A pre-/postemergence plant response
In short: (§1)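 Greenhouse pot test: loam–sand soil; pre- and postemergence sprays applied same day; post plants 2–10 cm, 1–2 leaves. Readout ~10 d, visual % injury vs untreated (0 = none, 100 = complete control).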

[2] = tested on: barnyardgrass (Echinochloa crus-galli); assay: Test A pre-/postemergence plant response
In short: as §1

[3] = tested on: morningglory (Ipomoea coccinea); assay: Test A pre-/postemergence plant response
In short: as §1

[4] = tested on: velvetleaf (Abutilon theophrasti); assay: Test A pre-/postemergence plant response
In short: as §1

[5] = tested on: corn (Zea mays); assay: Test A pre-/postemergence plant response
In short: as §1

[6] = tested on: pigweed (Amaranthus retroflexus); assay: Test A pre-/postemergence plant response
In short: as §1

[7] = tested on: wheat (Triticum aestivum); assay: Test A pre-/postemergence plant response
In short: as §1

[8] = tested on: large crabgrass (Digitaria sanguinalis); assay: Test A pre-/postemergence plant response
In short: as §1

[9] = tested on: barnyardgrass (Echinochloa crus-galli); assay: Test B flooded paddy test plant response
In short: (§2)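 Compounds were added directly to paddy water over 2-leaf-stage plants in pots flooded 3 cm above soil, water depth maintained. Visual injury scored against controls after 13 to 15 days in greenhouse, 0 (none) to 100 (complete control); dash indicates no result.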

[10] = tested on: umbrella sedge (Cyperus difformis); assay: Test B flooded paddy test plant response
In short: as §2

[11] = tested on: ducksalad (Heteranthera limosa); assay: Test B flooded paddy test plant response
In short: as §2

[12] = tested on: rice (Oryza sativa); assay: Test B flooded paddy test plant response
In short: as §2

[13] = tested on: canarygrass (Phalaris minor); assay: Test B postemergence plant response; conditions: for Canarygrass plant response rating: 8 g ai/ha, postemergence, 0-100 scale; for Plant response rating, Canarygrass: Postemergence
In short: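 Visual injury ratings on a 0–100 scale, where 100 means complete control, were made 13 to 15 days after postemergence treatment of greenhouse-grown plants at the 1- to 4-leaf stage.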

[14] = Postemergence, 31 g ai/ha, 0 to 100 scale, 0 no effect, 100 complete control
[15] = Postemergence, 125 g ai/ha, 0 to 100 scale, 0 no effect, 100 complete control
[16] = Preemergence, 31 g ai/ha, 0 to 100 scale, 0 is no effect, 100 is complete control
[17] = Preemergence, 125 g ai/ha, 0 to 100 scale (0 no effect, 100 complete control)
[18] = Flood (flooded paddy test), 62 g ai/ha, scale 0 to 100, 0 no effect, 100 complete control
[19] = Flood (flooded paddy test), 125 g ai/ha, scale 0 to 100, 0 no effect, 100 complete control
[20] = Flood, 31 g ai/ha, scale 0 to 100
[21] = 62 g ai/ha, scale 0 to 100, 0 no effect, 100 complete control
[22] = Flood (flooded paddy test), 250 g ai/ha, scale 0 to 100, 0 no effect, 100 complete control

Cc1cc(-c2ccc(Cl)cc2)nn1-c1c(OS(=O)(=O)c2ccccc2)cnn(C)c1=O [Compound 35]
Plant response rating, Foxtail, Giant [1, 14]: 60 | Plant response rating, Foxtail, Giant [1, 15]: 90 | Plant response rating, Foxtail, Giant [1, 16]: 100 | Plant response rating, Foxtail, Giant [1, 17]: 100 | Plant response rating, Barnyardgrass [2, 14]: 60 | Plant response rating, Barnyardgrass [2, 15]: 90 | Plant response rating, Barnyardgrass [2, 16]: 80 | Plant response rating, Barnyardgrass [2, 17]: 100 | Plant response rating, Morningglory [3, 14]: 0 | Plant response rating, Morningglory [3, 15]: 0 | Plant response rating, Morningglory [3, 16]: 0 | Plant response rating, Morningglory [3, 17]: 0 | Plant response rating, Velvetleaf [4, 14]: 0 | Plant response rating, Velvetleaf [4, 15]: 0 | Plant response rating, Velvetleaf [4, 16]: 0 | Plant response rating, Velvetleaf [4, 17]: 0 | Plant response rating, Corn [5, 14]: 0 | Plant response rating, Corn [5, 15]: 60 | Plant response rating, Corn [5, 16]: 0 | Plant response rating, Corn [5, 17]: 80 | Plant response rating, Pigweed [6, 14]: 0 | Plant response rating, Pigweed [6, 15]: 0 | Plant response rating, Pigweed [6, 16]: 0 | Plant response rating, Pigweed [6, 17]: 30 | Plant response rating, Wheat [7, 14]: 0 | Plant response rating, Wheat [7, 15]: 60 | Plant response rating, Wheat [7, 16]: 20 | Plant response rating, Wheat [7, 17]: 80 | Plant response rating, Crabgrass, Large [8, 14]: 40 | Plant response rating, Crabgrass, Large [8, 15]: 90 | Plant response rating, Crabgrass, Large [8, 16]: 90 | Plant response rating, Crabgrass, Large [8, 17]: 100 | Plant response rating, Barnyardgrass [9, 18]: 0 | Plant response rating, Barnyardgrass [9, 19]: 0 | Plant response rating, Barnyardgrass [9, 20]: 0 | Plant response rating, Sedge, Umbrella [10, 18]: 0 | Plant response rating, Sedge, Umbrella [10, 19]: 0 | Plant response rating, Sedge, Umbrella [10, 20]: 0 | Plant response rating, Ducksalad [11, 18]: 0 | Plant response rating, Ducksalad [11, 19]: 0 | Plant response rating, Ducksalad [11, 20]: 0 | Plant response rating, Rice [12, 18]: 0 | Plant response rating, Rice [12, 19]: 0 | Plant response rating, Rice [12, 20]: 0 | Canarygrass plant response rating [13]: 0 | Plant response rating, Canarygrass ([13]; 16 g ai/ha, scale 0 to 100): 0 | Plant response rating, Canarygrass ([13]; 31 g ai/ha, scale 0 to 100, 0 no effect, 100 complete control): 5 | Plant response rating, Canarygrass [13, 21]: 45

CCOC(=O)Oc1cnn(C)c(=O)c1-n1nc(-c2ccc(Cl)cc2)cc1C [Compound 53]
Plant response rating, Foxtail, Giant [1, 14]: 90 | Plant response rating, Foxtail, Giant [1, 15]: 100 | Plant response rating, Foxtail, Giant [1, 16]: 100 | Plant response rating, Foxtail, Giant [1, 17]: 100 | Plant response rating, Barnyardgrass [2, 14]: 90 | Plant response rating, Barnyardgrass [2, 15]: 100 | Plant response rating, Barnyardgrass [2, 16]: 100 | Plant response rating, Barnyardgrass [2, 17]: 100 | Plant response rating, Morningglory [3, 14]: 0 | Plant response rating, Morningglory [3, 15]: 20 | Plant response rating, Morningglory [3, 16]: 0 | Plant response rating, Morningglory [3, 17]: 0 | Plant response rating, Velvetleaf [4, 14]: 0 | Plant response rating, Velvetleaf [4, 15]: 0 | Plant response rating, Velvetleaf [4, 16]: 0 | Plant response rating, Velvetleaf [4, 17]: 0 | Plant response rating, Corn [5, 14]: 80 | Plant response rating, Corn [5, 15]: 90 | Plant response rating, Corn [5, 16]: 0 | Plant response rating, Corn [5, 17]: 70 | Plant response rating, Pigweed [6, 14]: 0 | Plant response rating, Pigweed [6, 15]: 0 | Plant response rating, Pigweed [6, 16]: 0 | Plant response rating, Pigweed [6, 17]: 0 | Plant response rating, Wheat [7, 14]: 20 | Plant response rating, Wheat [7, 15]: 70 | Plant response rating, Wheat [7, 16]: 50 | Plant response rating, Wheat [7, 17]: 90 | Plant response rating, Crabgrass, Large [8, 14]: 80 | Plant response rating, Crabgrass, Large [8, 15]: 100 | Plant response rating, Crabgrass, Large [8, 16]: 90 | Plant response rating, Crabgrass, Large [8, 17]: 100 | Plant response rating, Barnyardgrass [9, 18]: 0 | Plant response rating, Barnyardgrass [9, 19]: 0 | Plant response rating, Barnyardgrass [9, 22]: 40 | Plant response rating, Barnyardgrass [9, 20]: 0 | Plant response rating, Sedge, Umbrella [10, 18]: 0 | Plant response rating, Sedge, Umbrella [10, 19]: 40 | Plant response rating, Sedge, Umbrella [10, 22]: 70 | Plant response rating, Sedge, Umbrella [10, 20]: 0 | Plant response rating, Ducksalad [11, 18]: 0 | Plant response rating, Ducksalad [11, 19]: 50 | Plant response rating, Ducksalad [11, 22]: 50 | Plant response rating, Ducksalad [11, 20]: 0 | Plant response rating, Rice [12, 18]: 0 | Plant response rating, Rice [12, 19]: 0 | Plant response rating, Rice [12, 22]: 30 | Plant response rating, Rice [12, 20]: 0 | Canarygrass plant response rating [13]: 0 | Plant response rating, Canarygrass ([13]; 16 g ai/ha, scale 0 to 100): 0 | Plant response rating, Canarygrass ([13]; 31 g ai/ha, scale 0 to 100): 0 | Plant response rating, Canarygrass [13, 21]: 0
